Results taken from paper PMC12346557, “Design, Synthesis, and Anticancer Evaluation of New Small-Molecule EGFR Inhibitors Targeting NSCLC and Breast Cancer” (International Journal of Molecular Sciences, 2025).

Key:
MCF-7 cells = experiment: MTT cytotoxicity assay, MCF-7 cells; type: cell-based; conditions: Homo sapiens, MCF7, 100 µM, 72 h, triplicate
A549 cells = experiment: MTT cytotoxicity assay, A549 cells; type: cell-based, human; conditions: 100 µM, 72 h, triplicate

Row | Compound | inhibition at 100 µM (MCF-7 cells) | reduction of A549 cell viability (A549 cells)
1 | Cc1ccc(C2=NN(c3nc(-c4ccc([N+](=O)[O-])cc4)cs3)C(c3cnc(-c4ccc(Cl)cc4)nc3)C2)cc1 (stereo not drawn) [BP-2, 1-(4-(4-Nitrophenyl)thiazol-2-yl)-3-(4-methylphenyl)-5-(2-(4-chlorophenyl)pyrimidin-5-yl)-2-pyrazoline] | 27 to 53% | 
2 | Cc1ccc(C2=NN(c3nc(-c4ccc(F)cc4)cs3)C(c3cnc(-c4ccc(Cl)cc4)nc3)C2)cc1 (stereo not drawn) [BP-3, 1-(4-(4-Fluorophenyl)thiazol-2-yl)-3-(4-methylphenyl)-5-(2-(4-chlorophenyl)pyrimidin-5-yl)-2-pyrazoline] | 27 to 53% | 
3 | Cc1ccc(C2=NN(c3nc(-c4ccc(Cl)cc4)cs3)C(c3cnc(-c4ccc(Cl)cc4)nc3)C2)cc1 (stereo not drawn) [BP-4, 1-(4-(4-Chlorophenyl)thiazol-2-yl)-3-(4-methylphenyl)-5-(2-(4-chlorophenyl)pyrimidin-5-yl)-2-pyrazoline] | 27 to 53% | 
4 | Cc1ccc(C2=NN(c3nc(-c4ccc(Br)cc4)cs3)C(c3cnc(-c4ccc(Cl)cc4)nc3)C2)cc1 (stereo not drawn) [BP-5, 1-(4-(4-Bromophenyl)thiazol-2-yl)-3-(4-methylphenyl)-5-(2-(4-chlorophenyl)pyrimidin-5-yl)-2-pyrazoline] | 27 to 53% | 21%
5 | Cc1ccc(C2=NN(c3nc(-c4ccc(C#N)cc4)cs3)C(c3cnc(-c4ccc(Cl)cc4)nc3)C2)cc1 (stereo not drawn) [BP-6, 1-(4-(4-Cyanophenyl)thiazol-2-yl)-3-(4-methylphenyl)-5-(2-(4-chlorophenyl)pyrimidin-5-yl)-2-pyrazoline] | 27 to 53% | 
6 | Cc1ccc(C2=NN(c3nc(-c4ccc(C(F)(F)F)cc4)cs3)C(c3cnc(-c4ccc(Cl)cc4)nc3)C2)cc1 (stereo not drawn) [BP-7, 1-(4-(4-Trifluoromethylphenyl)thiazol-2-yl)-3-(4-methylphenyl)-5-(2-(4-chlorophenyl)pyrimidin-5-yl)-2-pyrazoline] | 27 to 53% | 33%
7 | COc1ccc(C2=NN(c3nc(-c4ccccc4)cs3)C(c3cnc(-c4ccc(Cl)cc4)nc3)C2)cc1 (stereo not drawn) [BP-8, 1-(4-Phenylthiazol-2-yl)-3-(4-methoxyphenyl)-5-(2-(4-chlorophenyl)pyrimidin-5-yl)-2-pyrazoline] | 27 to 53% | 
8 | COc1ccc(C2=NN(c3nc(-c4ccc([N+](=O)[O-])cc4)cs3)C(c3cnc(-c4ccc(Cl)cc4)nc3)C2)cc1 (stereo not drawn) [BP-9, 1-(4-(4-Nitrophenyl)thiazol-2-yl)-3-(4-methoxyphenyl)-5-(2-(4-chlorophenyl)pyrimidin-5-yl)-2-pyrazoline] | 27 to 53% | 
9 | COc1ccc(C2=NN(c3nc(-c4ccc(Br)cc4)cs3)C(c3cnc(-c4ccc(Cl)cc4)nc3)C2)cc1 (stereo not drawn) [BP-12, 1-(4-(4-Bromophenyl)thiazol-2-yl)-3-(4-methoxyphenyl)-5-(2-(4-chlorophenyl)pyrimidin-5-yl)-2-pyrazoline] | 27 to 53% | 
10 | COc1ccc(C2=NN(c3nc(-c4ccc(C#N)cc4)cs3)C(c3cnc(-c4ccc(Cl)cc4)nc3)C2)cc1 (stereo not drawn) [BP-13, 1-(4-(4-Cyanophenyl)thiazol-2-yl)-3-(4-methoxyphenyl)-5-(2-(4-chlorophenyl)pyrimidin-5-yl)-2-pyrazoline] | 27 to 53% | 
11 | COc1ccc(C2=NN(c3nc(-c4ccc(C(F)(F)F)cc4)cs3)C(c3cnc(-c4ccc(Cl)cc4)nc3)C2)cc1 (stereo not drawn) [BP-14, 1-(4-(4-Trifluoromethylphenyl)thiazol-2-yl)-3-(4-methoxyphenyl)-5-(2-(4-chlorophenyl)pyrimidin-5-yl)-2-pyrazoline] | 27 to 53% | 
12 | COc1ccc(C2=NN(C(N)=S)C(c3cnc(-c4ccc(Cl)cc4)nc3)C2)cc1 (stereo not drawn) [Compound B-7, 3-(4-methoxyphenyl)-5-(2-(4-chlorophenyl)pyrimidin-5-yl)-1-thiocarbamoyl-2-pyrazoline] | 39% | 35%
